Measurements reported in paper PMC8328489, “Automated Synthesis and Initial Evaluation of (4′-Amino-5′,8′-difluoro-1′H-spiro[piperidine-4,2′-quinazolin]-1-yl)(4-[^18F]fluorophenyl)methanone for PET/MR Imaging of Inducible Nitric Oxide Synthase” (Molecular Imaging, 2021).
“And” between values parts separate entries of the source, which are not always exact repeats. Equal entries are not always repeated.

What was measured:
[1] = target: T1, iNOS (Mus musculus, UniProt P29477); assay: In vivo brain PET/MR imaging of LPS-induced iNOS expression (SUV, SUR, AUC) incl. aminoguanidine blocking; design: species or system C57BL/6 mice
T1 construct: tracer to detect iNOS expression in mice injected with lipopolysaccharide (LPS) to induce brain inflammation; from tissue; host or cells: brain of living C57BL/6 mice (LPS-induced); fixed brain sections for IHC
Description: For the imaging experiments, twelve C57BL/6 mice were injected i.p. with 0.9% NaCl, eighteen mice were injected i.p. with 0.1 mL of LPS in saline (5 mg/kg), and six mice were injected i.p. with aminoguanidine (Sigma-Aldrich) 30 min prior to 5 mg/kg LPS. In vivo imaging was performed 3 h or 24 h after injection of LPS; then, the mice were immediately humanely euthanized and the brains were removed for immunostaining.
(§1) Mice (n = 30) were anesthetized with 2% isoflurane (in oxygen) and injected with [^18F]FBAT (11.1 MBq; 0.3 mCi) via the tail vein. Dynamic PET images were obtained in fully three-dimensional list mode for 30 min using a small animal SuperArgus 2r PET system (SEDECAL, Madrid, Spain) or 7T PETMR Inline (Bruker, Rheinstetten, Germany; energy window, 350-650 keV; timing window, 6 ns). Images were acquired every 10 s for 12 images, 60 s for three images, 300 s for three images, or 600 s for […]. The anatomical structure of the brain was imaged using T2 MRI. The MRI sequences included 0.5 mm thick T2 Turbo RARE high-resolution images (TR = 3000 ms, TE, 46 ms, matrix, 512 × 256, average, 40, slice number, 30, field of view, 20 × 10 mm).
After determining the optimal imaging time point for [^18F]FBAT, we performed a blocking study using a selective iNOS inhibitor to assess the specificity of the tracer for iNOS. Separate 7T PET/MR studies with [^18F]FBAT were performed for mice (n = 6) administered a bolus of aminoguanidine (50 mg/kg i.p.) 30 min prior to administration of [^18F]FBAT. The time course of [^18F]FBAT radioactivity in the brain after administration of the iNOS inhibitor was assessed and compared to that of the mice in the LPS 3 h group.
(§2) Images were reconstructed by the Fourier rebinning algorithm and two-dimensional filtered back projection using a ramp filter with a cutoff at Nyquist. The regional radioactivity concentration (kBq/cc) of [^18F]FBAT was estimated from the mean pixel values within the region of interest (ROI) corresponding to MR images of various organs and regions of the brain. ROI for carotid artery, heart muscle, lung, liver, spleen, and kidney were defined and time activity curves (TACs) generated. TACs for whole brain, cortex, cerebellum, and brainstem were also determined as described above.
(§3) The concentration of radioactivity (kBq/cc, μCi/cc) was converted to standardized uptake value (SUV), and the mean and standard deviation (SD) of radiotracer accumulation values were calculated for different organs and regions of the brain. Data were analyzed with PMOD 4.0 software (PMOD Technologies Ltd., Zurich, Switzerland).

[2] = Radiolabeled metabolites in blood plasma (radio-HPLC); type: in vivo, Sprague-Dawley rats; conditions: rat, i.v.
Description: Adult Sprague-Dawley rats (n = 3) were anesthetized with 2% isoflurane (in oxygen) and injected with 194.87 MBq ± 22.61 MBq of [^18F]FBAT in the tail vein. Plasma was extracted from heparinized blood samples (0.25 mL) with 3x volumes of acetonitrile and analyzed with radio-HPLC; mobile phase: 40% MeCN/0.10% TEA in water at 1 mL/min. This method affords retention time of [^18F]FBAT which was 18.1–18.9 min. Fractions of [^18F]FBAT and metabolites were calculated for each sample based on the area under each peak. The radioactivity concentration in the whole blood and plasma was assayed using a gamma counter (Cobra, Packard, CT).

[3] = target: T1, iNOS; assay: Logan graphical analysis of dynamic PET (Vt); type: in vivo, C57BL/6 mice
Description: The dynamic PET imaging data were analyzed using Logan's model-independent graphical analysis to assess whether [^18F]FBAT PET/MR could be used to detect differences in expression of iNOS in brain regions (Cbra(t)). Cardiac blood TACs (Cref(t)) were used as the reference tissue. The slope of the linear portion of the Logan plot represents the total distribution (Vt). Then, the slope of the linear portion of the plot can be calculated using (1) ∫0tCreferencetdt/CreferenceT=DVR∫0tCbrain regiontdt/CreferenceT+C.

[4] = Whole-body dynamic PET/MR biodistribution and blood clearance; type: in vivo, C57BL/6 mice
Description: as §1, §2, §3

[5] = LPS 5 mg/kg, 3 h, 30 min post i.v. tracer
[6] = LPS 5 mg/kg, 24 h, 30 min post i.v. tracer
[7] = LPS 3 h + aminoguanidine 50 mg/kg pretreatment
[8] = control mice, 30 min post i.v. tracer

NC1=NC2(CCN(C(=O)c3ccc([18F])cc3)CC2)Nc2c(F)ccc(F)c21 [[^18F]FBAT, (4′-amino-5′,8′-difluoro-1′H-spiro[piperidine-4,2′-quinazolin]-1-yl)(4-[^18F]fluorophenyl)methanone]
SUV, brainstem [1, 5]: 0.98 ± 0.09 SUV and 0.976 ± 0.244^∗ SUV
SUV, cerebellum [1, 5]: 0.60 ± 0.03 SUV and 0.600 ± 0.066^∗ SUV
SUV, cortex [1, 5]: 0.90 ± 0.07 SUV and 0.904 ± 0.251^∗ SUV
SUV, whole brain [1, 5]: 1.43 ± 0.11 SUV and 1.428 ± 0.410^∗∗∗ SUV
SUV, brainstem [1, 6]: 0.67 ± 0.07 SUV and 0.671 ± 0.148 SUV
SUV, cerebellum [1, 6]: 0.54 ± 0.02 SUV and 0.542 ± 0.052 SUV
SUV, cortex [1, 6]: 0.62 ± 0.02 SUV and 0.620 ± 0.041 SUV
SUV, whole brain [1, 6]: 0.90 ± 0.13 SUV and 0.900 ± 0.270 SUV
SUV, brainstem [1, 7]: 0.35 ± 0.10 SUV and 0.350 ± 0.055 SUV
SUV, cerebellum [1, 7]: 0.31 ± 0.09 SUV and 0.310 ± 0.037 SUV
SUV, cortex [1, 7]: 0.32 ± 0.09 SUV and 0.320 ± 0.063 SUV
SUV, whole brain [1, 7]: 0.31 ± 0.08 SUV and 0.312 ± 0.055 SUV
SUR (SUVLPS to SUVcon), brainstem ([1]; LPS 24 h): 1.273 ± 0.163
SUR (SUVLPS to SUVcon), cerebellum ([1]; LPS 24 h): 1.233 ± 0.112
SUR (SUVLPS to SUVcon), cortex ([1]; LPS 24 h): 0.970 ± 0.303
SUR (SUVLPS to SUVcon), whole brain ([1]; LPS 24 h): 1.351 ± 0.451
SUR (SUV ratio to control), brainstem ([1]; control mice): 1.000
SUR (SUV ratio to control), cerebellum ([1]; control mice): 1.000
SUR (SUV ratio to control), cortex ([1]; control mice): 1.000
SUR (SUV ratio to control), whole brain ([1]; control mice): 1.000
SUV, brainstem [1, 8]: 0.540 ± 0.153 SUV
SUV, cerebellum [1, 8]: 0.448 ± 0.115 SUV
SUV, cortex [1, 8]: 0.604 ± 0.150 SUV
SUV, whole brain [1, 8]: 0.709 ± 0.200 SUV
AUC0-30min, 3 h LPS group vs control group ([1]; whole brain, average): 1.9 ± 0.21 fold
metabolites fraction in plasma ([2]; 120 min after injection): ~94.02%
parent compound fraction in plasma ([2]; first 5 minutes): 77.98%
volume distribution Vt, brainstem ([3]; LPS 3 h): 0.435 ± 0.040^∗ mL/cm^3
volume distribution Vt, cerebellum ([3]; LPS 3 h): 0.385 ± 0.016^∗∗ mL/cm^3
volume distribution Vt, cortex ([3]; LPS 3 h): 0.391 ± 0.020^∗ mL/cm^3
volume distribution Vt, whole brain ([3]; LPS 3 h): 0.404 ± 0.003 mL/cm^3
volume distribution Vt, brainstem ([3]; LPS 3 h + AMG): 0.223 ± 0.036 mL/cm^3
volume distribution Vt, cerebellum ([3]; LPS 3 h + AMG): 0.250 ± 0.055 mL/cm^3
volume distribution Vt, cortex ([3]; LPS 3 h + AMG): 0.222 ± 0.024 mL/cm^3
volume distribution Vt, whole brain ([3]; LPS 3 h + AMG): 0.203 ± 0.032 mL/cm^3
volume distribution Vt, brainstem ([3]; LPS 24 h): 0.315 ± 0.065 mL/cm^3
volume distribution Vt, cerebellum ([3]; LPS 24 h): 0.288 ± 0.090 mL/cm^3
volume distribution Vt, cortex ([3]; LPS 24 h): 0.264 ± 0.036^∗ mL/cm^3
volume distribution Vt, whole brain ([3]; LPS 24 h): 0.274 ± 0.068 mL/cm^3
average volume distribution Vt in brain regions ([3]; LPS group (implied), blood as reference tissue): 0.40 ± 0.02 mL/cm^3
Vt in the brain regions ([3]; control animals): 0.29 ± 0.05 mL/cm^3
volume distribution Vt, brainstem ([3]; control mice): 0.295 ± 0.026 mL/cm^3
volume distribution Vt, cerebellum ([3]; control mice): 0.227 ± 0.001 mL/cm^3
volume distribution Vt, cortex ([3]; control mice): 0.278 ± 0.006 mL/cm^3
volume distribution Vt, whole brain ([3]; control mice): 0.346 ± 0.012 mL/cm^3
Vt, 3 h LPS group vs control group ([3]; whole brain, average): 1.4 ± 0.22 fold
level of [^18F]FBAT in blood (carotid ROI) ([4]; 30 min post i.v. injection, brain imaging study): 0.30 ± 0.06 SUV
radioactivity remaining in the blood pool ([4]; 30 min postinjection, whole-body biodistribution study): 0.298 ± 0.019 SUV
time of peak radioactivity in heart muscle ([4]; after injection): ≤ 1 min
blood clearance half-life, first phase (biexponential) ([4]; carotid, i.v.): 1.05 ± 0.58 min
blood clearance half-life, second phase (biexponential) ([4]; carotid, i.v.): 24.9 ± 7.46 min
time of peak accumulation in the lungs ([4]; postinjection): 1 to 2 min
accumulation of radioactivity in skeletal structures ([4]; up to 30 min postinjection): No accumulation
